{"source": "patent US20110319416A1", "about": "“Subunit Selective NMDA Receptor Antagonists For The Treatment Of Neurological Conditions” (EMORY UNIVERSITY, priority 2009, published 2011)", "key": {"NR2D [1]": {"biological_target": "T1, NR2D (Homo sapiens, UniProt O15399+Q05586)", "T1 sequence (O15399 28-1336, other chains not shown)": "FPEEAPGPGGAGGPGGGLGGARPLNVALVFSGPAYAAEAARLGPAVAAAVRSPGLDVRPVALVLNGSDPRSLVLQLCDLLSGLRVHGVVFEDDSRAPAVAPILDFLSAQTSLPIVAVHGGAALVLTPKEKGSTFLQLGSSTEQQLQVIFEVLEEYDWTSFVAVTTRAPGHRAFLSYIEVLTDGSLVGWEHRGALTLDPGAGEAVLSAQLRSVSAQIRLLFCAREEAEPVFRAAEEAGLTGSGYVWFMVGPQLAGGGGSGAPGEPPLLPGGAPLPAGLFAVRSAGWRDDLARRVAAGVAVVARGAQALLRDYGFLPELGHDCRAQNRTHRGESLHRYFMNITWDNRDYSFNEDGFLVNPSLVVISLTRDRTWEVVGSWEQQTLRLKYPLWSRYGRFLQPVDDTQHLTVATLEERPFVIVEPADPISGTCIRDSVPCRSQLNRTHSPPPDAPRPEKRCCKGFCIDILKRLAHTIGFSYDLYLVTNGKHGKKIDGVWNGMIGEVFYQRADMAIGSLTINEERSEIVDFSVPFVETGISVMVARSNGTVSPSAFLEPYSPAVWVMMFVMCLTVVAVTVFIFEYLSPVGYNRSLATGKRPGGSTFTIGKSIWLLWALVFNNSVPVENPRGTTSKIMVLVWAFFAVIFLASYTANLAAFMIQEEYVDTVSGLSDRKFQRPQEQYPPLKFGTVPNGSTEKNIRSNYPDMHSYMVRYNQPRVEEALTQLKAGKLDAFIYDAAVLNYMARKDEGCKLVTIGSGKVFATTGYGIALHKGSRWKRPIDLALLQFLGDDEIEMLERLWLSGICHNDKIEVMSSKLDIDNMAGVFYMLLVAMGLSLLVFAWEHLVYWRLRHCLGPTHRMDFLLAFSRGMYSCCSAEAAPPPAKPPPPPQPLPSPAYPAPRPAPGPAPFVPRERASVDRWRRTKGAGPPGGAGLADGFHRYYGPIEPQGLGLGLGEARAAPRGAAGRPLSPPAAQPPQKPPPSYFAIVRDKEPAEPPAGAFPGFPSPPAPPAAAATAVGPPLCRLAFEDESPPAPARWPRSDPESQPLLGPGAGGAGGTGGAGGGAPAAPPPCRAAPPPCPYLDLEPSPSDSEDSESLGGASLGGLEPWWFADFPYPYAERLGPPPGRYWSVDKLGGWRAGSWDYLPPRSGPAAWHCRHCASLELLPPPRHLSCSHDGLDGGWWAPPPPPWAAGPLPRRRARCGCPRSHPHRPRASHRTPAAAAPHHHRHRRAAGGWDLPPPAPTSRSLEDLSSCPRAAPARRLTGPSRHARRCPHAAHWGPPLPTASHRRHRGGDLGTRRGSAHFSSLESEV", "test": "Literature functional antagonist potency at NR2D (Table 1)", "format": "cell-based", "settings": "for 2A/2D (ratio of Ki**): functional Ki ratio"}, "NR2A": {"biological_target": "NR2A (Homo sapiens, UniProt Q05586+Q12879)", "settings": "cited from earlier work; for potency estimated from few doses: Ki estimated from functionally determined IC50 at a single agonist concentration, read-out: 2A (μM) Ki**"}, "NR2B [2]": {"biological_target": "T2, NR2B (Homo sapiens, UniProt Q05586+Q13224)", "T2 sequence (Q13224 27-1484, other chains not shown)": "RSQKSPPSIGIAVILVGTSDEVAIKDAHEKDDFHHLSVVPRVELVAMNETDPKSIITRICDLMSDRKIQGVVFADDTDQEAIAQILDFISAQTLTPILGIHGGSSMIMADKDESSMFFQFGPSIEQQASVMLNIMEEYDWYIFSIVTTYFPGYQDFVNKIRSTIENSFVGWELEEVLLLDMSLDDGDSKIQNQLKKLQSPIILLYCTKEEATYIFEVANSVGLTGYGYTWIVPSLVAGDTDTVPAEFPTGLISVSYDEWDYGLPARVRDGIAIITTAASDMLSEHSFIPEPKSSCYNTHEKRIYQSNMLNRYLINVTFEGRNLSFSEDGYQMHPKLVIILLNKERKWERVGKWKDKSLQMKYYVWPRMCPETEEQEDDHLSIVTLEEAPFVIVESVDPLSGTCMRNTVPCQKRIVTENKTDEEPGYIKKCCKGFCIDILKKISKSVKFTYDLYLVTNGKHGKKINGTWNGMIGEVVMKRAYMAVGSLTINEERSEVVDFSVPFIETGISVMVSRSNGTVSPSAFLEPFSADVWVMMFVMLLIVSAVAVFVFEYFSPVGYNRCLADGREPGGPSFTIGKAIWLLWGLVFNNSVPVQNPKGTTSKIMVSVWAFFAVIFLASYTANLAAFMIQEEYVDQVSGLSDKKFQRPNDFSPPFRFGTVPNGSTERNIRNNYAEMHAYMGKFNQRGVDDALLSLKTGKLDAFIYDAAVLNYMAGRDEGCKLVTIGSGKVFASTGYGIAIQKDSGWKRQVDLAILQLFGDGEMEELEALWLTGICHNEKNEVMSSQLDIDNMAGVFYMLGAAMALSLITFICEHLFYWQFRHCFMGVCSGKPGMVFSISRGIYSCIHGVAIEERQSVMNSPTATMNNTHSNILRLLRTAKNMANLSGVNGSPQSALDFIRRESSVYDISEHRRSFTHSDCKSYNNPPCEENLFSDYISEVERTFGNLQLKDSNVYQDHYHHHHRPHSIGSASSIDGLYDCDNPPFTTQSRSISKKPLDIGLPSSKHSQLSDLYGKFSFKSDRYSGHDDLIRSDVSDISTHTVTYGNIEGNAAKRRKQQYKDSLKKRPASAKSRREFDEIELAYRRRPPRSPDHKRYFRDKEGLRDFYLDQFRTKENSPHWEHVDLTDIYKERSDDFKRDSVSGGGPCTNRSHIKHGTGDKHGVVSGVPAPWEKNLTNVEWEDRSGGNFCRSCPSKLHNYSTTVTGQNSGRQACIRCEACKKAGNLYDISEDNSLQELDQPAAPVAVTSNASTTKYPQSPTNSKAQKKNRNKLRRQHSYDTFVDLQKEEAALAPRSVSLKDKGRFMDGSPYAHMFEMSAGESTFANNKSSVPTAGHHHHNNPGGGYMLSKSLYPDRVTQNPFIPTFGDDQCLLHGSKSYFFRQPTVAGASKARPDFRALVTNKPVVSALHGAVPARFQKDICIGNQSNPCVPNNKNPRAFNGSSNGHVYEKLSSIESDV", "settings": "cited from earlier work; for potency estimated from few doses: Ki estimated from functionally determined IC50 at a single agonist concentration, read-out: 2B (μM) Ki**"}, "NR2C": {"biological_target": "NR2C (Homo sapiens, UniProt Q05586+Q14957)", "sequence (Q14957 20-1233, other chains not shown)": "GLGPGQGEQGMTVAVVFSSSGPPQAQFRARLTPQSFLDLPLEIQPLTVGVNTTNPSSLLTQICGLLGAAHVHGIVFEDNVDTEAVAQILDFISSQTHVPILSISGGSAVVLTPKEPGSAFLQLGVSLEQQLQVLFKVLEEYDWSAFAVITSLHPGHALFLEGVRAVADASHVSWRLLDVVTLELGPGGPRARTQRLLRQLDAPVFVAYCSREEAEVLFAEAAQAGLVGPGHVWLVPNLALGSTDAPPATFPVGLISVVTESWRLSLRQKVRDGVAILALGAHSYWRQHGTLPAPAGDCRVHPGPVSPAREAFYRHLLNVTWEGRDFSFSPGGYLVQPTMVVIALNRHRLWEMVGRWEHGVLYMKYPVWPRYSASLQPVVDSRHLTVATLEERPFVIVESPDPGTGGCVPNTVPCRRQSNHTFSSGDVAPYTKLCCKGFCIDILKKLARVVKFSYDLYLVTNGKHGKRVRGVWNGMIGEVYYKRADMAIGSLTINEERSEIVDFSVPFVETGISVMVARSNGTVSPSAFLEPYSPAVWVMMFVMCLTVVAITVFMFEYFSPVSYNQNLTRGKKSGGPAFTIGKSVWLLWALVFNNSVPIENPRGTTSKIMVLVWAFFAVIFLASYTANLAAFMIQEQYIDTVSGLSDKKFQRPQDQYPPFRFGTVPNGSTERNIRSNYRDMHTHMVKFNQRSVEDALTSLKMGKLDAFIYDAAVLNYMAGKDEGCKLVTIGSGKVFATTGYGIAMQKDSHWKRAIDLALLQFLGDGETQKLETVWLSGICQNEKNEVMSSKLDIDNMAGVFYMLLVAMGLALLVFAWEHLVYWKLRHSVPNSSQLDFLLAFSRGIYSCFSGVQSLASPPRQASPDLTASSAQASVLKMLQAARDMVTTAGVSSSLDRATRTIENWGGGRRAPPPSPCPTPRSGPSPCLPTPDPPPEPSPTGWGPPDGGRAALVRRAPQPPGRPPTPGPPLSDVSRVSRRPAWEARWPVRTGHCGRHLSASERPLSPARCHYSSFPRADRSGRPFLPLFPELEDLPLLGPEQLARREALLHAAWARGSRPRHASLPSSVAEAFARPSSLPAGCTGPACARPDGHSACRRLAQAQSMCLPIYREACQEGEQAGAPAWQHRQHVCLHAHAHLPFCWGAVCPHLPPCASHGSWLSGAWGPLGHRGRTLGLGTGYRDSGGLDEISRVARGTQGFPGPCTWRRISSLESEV"}, "NR2D [3]": {"biological_target": "T1, NR2D"}, "NR2B [4]": {"biological_target": "T2, NR2B", "test": "Literature functional antagonist potency at NR2B (Table 1)", "settings": "for 2A/2B (ratio of Ki**): functional Ki ratio"}, "NR1/NR2A [5]": {"biological_target": "NR1/NR2A (Rattus norvegicus, UniProt P35439+Q00959)", "test": "Two electrode voltage clamp, Xenopus oocytes expressing recombinant NR1/NR2A", "format": "cell-based", "settings": "logistic fit, minimum forced to 0; read-out: 2A IC50", "description": "(§1) Quality of synthesized cRNA was assessed by gel electrophoresis, and quantity was estimated by spectroscopy and gel electrophoresis. Stage V and VI oocytes were surgically removed from the ovaries of large, well-fed and healthy Xenopus laevis anesthetized with 3-amino-benzoic acid ethyl ester (3 gm/l) as previously described. Clusters of isolated oocytes were incubated with 292 U/ml Worthington (Freehold, N.J.) type IV collagenase or 1.3 mg/ml collagenase (Life Technologies, Gaithersburg, MD; 17018-029) for 2 hr in Ca^2+-free solution comprised of (in mM) 115 NaCl, 2.5 KCl, and 10 HEPES, pH 7.5, with slow agitation to remove the follicular cell layer. Oocytes were then washed extensively in the same solution supplemented with 1.8 mM CaCl2 and maintained in Barth's solution comprised of (in mM): 88 NaCl, 1 KCl, 2.4 NaHCO3, 10 HEPES, 0.82 MgSO4, 0.33 Ca(NO3)2, and 0.91 CaCl2 and supplemented with 100 μg/m1 gentamycin, 10 μg/ml streptomycin, and 10 μg/ml penicillin. Oocytes were manually defolliculated and injected within 24 hrs of isolation with 3-5 ng of NR1 subunit cRNA and 7-10 ng of NR2 cRNA subunit in a 50 nl volume, or 5-10 ng of AMPA or kainate receptor cRNAs in a 50 nl volume, and incubated in Barth's solution at 18° C. for 1-7 d. Glass injection pipettes had tip sizes ranging from 10-20 microns, and were backfilled with mineral oil.\n(§2) Two electrode voltage-clamp recordings were made 2-7 days post-injection as previously described. Oocytes were placed in a dual-track plexi-glass recording chamber with a single perfusion line that splits in a Y-configuration to perfuse two oocytes. Dual recordings were made at room temperature (23° C.) using two Warner OC725B two-electrode voltage clamp amplifiers, arranged as recommended by the manufacturer. Glass microelectrodes (1-10 Megaohms) were filled with 300 mM KCl (voltage electrode) or 3 M KCl (current electrode). The bath clamps communicated across silver chloride wires placed into each side of the recording chamber, both of which were assumed to be at a reference potential of 0 mV. Oocytes were perfused with a solution comprised of (in mM) 90 NaCl, 1 KCl, 10 HEPES, and 0.5 BaCl2; pH was adjusted by addition of 1-3 M NaOH of HC1 to 7.4. Oocytes were recorded under voltage clamp at −40 mV. […] In some experiments, 10 μM EDTA was obtained by adding a 1:1000 dilution of 10 mM EDTA, in order to chelate contaminant divalent ions such as Zn^2+. […] Concentration effect curves consisting of 4 to 8 concentrations were obtained in this manner. The baseline leak current at −40 mV was measured before and after recording, and the full recording linearly corrected for any change in leak current. […] Each experiment consisted of recordings from 3 to 10 oocytes obtained from a single frog. Results from multiple experiments were pooled, and the average percent responses at antagonist concentrations were fitted by the equation,\n(§3) Percent Response=(100−minimum)/(1+([conc]/IC50)nH)+minimum"}, "NR1/NR2B [6]": {"biological_target": "NR1/NR2B (Rattus norvegicus, UniProt P35439+Q00960)", "test": "Two electrode voltage clamp, Xenopus oocytes expressing recombinant NR1/NR2B", "format": "cell-based", "settings": "logistic fit, minimum forced to 0; read-out: 2B IC50", "description": "as §1, §2, §3"}, "NR1/NR2B [7]": {"biological_target": "NR1/NR2B (Rattus norvegicus, UniProt Q00960)", "test": "Two electrode voltage clamp, Xenopus oocytes expressing recombinant NR1/NR2B", "format": "cell-based", "settings": "logistic fit, minimum forced to 0; read-out: 2B IC50", "description": "as §1, §2, §3"}, "NR1/NR2C [8]": {"biological_target": "NR1/NR2C (Rattus norvegicus, UniProt P35439+Q00961)", "test": "Two electrode voltage clamp, Xenopus oocytes expressing recombinant NR1/NR2C", "format": "cell-based", "settings": "logistic fit, minimum forced to 0; read-out: 2C IC50", "description": "as §1, §2, §3"}, "NR1/NR2C [9]": {"biological_target": "NR1/NR2C (Rattus norvegicus, UniProt Q00961)", "test": "Two electrode voltage clamp, Xenopus oocytes expressing recombinant NR1/NR2C", "format": "cell-based", "settings": "logistic fit, minimum forced to 0; read-out: 2C IC50", "description": "as §1, §2, §3"}, "NR1/NR2D [10]": {"biological_target": "NR1/NR2D (Rattus norvegicus, UniProt P35439+Q62645)", "test": "Two electrode voltage clamp, Xenopus oocytes expressing recombinant NR1/NR2D", "format": "cell-based", "settings": "logistic fit, minimum forced to 0; read-out: 2D IC50", "description": "as §1, §2, §3"}, "NR1/NR2A [11]": {"biological_target": "NR1/NR2A (Rattus norvegicus, UniProt Q00959)", "test": "Two electrode voltage clamp, Xenopus oocytes expressing recombinant NR1/NR2A", "format": "cell-based", "settings": "at 100 μM", "description": "as §1, §2, §3"}, "NR1/NR2D [12]": {"biological_target": "NR1/NR2D (Rattus norvegicus, UniProt Q62645)", "test": "Ca2+ fluorescence screening assay in NR1/NR2D expressing BHK cells (96 well)", "format": "cell-based", "set-up": "expressed in transfected cells; host or cells: BHK-21 cells; NR1 induced by doxycyclin (Tet-On), NR2D constitutive", "settings": "10 μM test compound, 100 μM glutamate/1 mM glycine"}, "[13]": {"settings": "Ki estimated from functionally determined IC50 at a single agonist concentration; read-out: 2C (μM) Ki**; cited from earlier work"}, "[14]": {"settings": "Ki estimated from functionally determined IC50 at a single agonist concentration; read-out: 2D (μM) Ki**; cited from earlier work"}}, "note": "Where two headings read alike, the source gives them in different places. Marks after values point to notes of the source that are not given here."}
{"smiles": "COc1ccc2c(c1)[C@]13CCCC[C@@H]1[C@H](C2)N(C)CC3", "note": "[Dextromethorphan]", "values": [{"measurement": "2A/2D (ratio of IC50)", "setting": "NR2D [1]; IC50 ratio", "result": 7.5}, {"measurement": "IC50", "setting": "NR2A; read-out: 2A (μM) IC50, non-competitive and uncompetitive antagonists", "result": 11.3, "unit": "µM"}, {"measurement": "IC50", "setting": "NR2B [2]; read-out: 2B (μM) IC50, non-competitive and uncompetitive antagonists", "result": 3.7, "unit": "µM"}, {"measurement": "IC50", "setting": "NR2C; read-out: 2C (μM) IC50; non-competitive and uncompetitive antagonists; cited from earlier work", "result": 1.1, "unit": "µM"}, {"measurement": "IC50", "setting": "NR2D [3]; read-out: 2D (μM) IC50; non-competitive and uncompetitive antagonists; cited from earlier work", "result": 1.5, "unit": "µM"}, {"measurement": "2A/2B (ratio of IC50)", "setting": "NR2B [4]; IC50 ratio", "result": 3.1}]}
{"smiles": "O=C(O)[C@H]1NCCN(C(=O)c2ccc3ccc4ccccc4c3c2)[C@H]1C(=O)O", "note": "[UBP141]", "values": [{"measurement": "2A/2D (ratio of Ki**)", "setting": "NR2D [1]", "result": "5.1**"}, {"measurement": "potency estimated from few doses", "setting": "NR2A", "result": 14.2, "unit": "µM"}, {"measurement": "potency estimated from few doses", "setting": "NR2B [2]", "result": 19.3, "unit": "µM"}, {"measurement": "potency estimated from few doses", "setting": "NR2C; [13]", "result": 4.2, "unit": "µM"}, {"measurement": "potency estimated from few doses", "setting": "NR2D [3]; [14]", "result": 2.8, "unit": "µM"}, {"measurement": "selectivity for NR2D over NR2A", "setting": "NR2D [3]; estimated Ki; cited from earlier work", "result": "~5", "unit": "fold"}, {"measurement": "2A/2B (ratio of Ki**)", "setting": "NR2B [4]", "result": "0.7**"}]}
{"smiles": "O=C(O)CCC(=O)N1N=C(c2c(-c3ccccc3)c3cc(Cl)ccc3[nH]c2=O)CC1c1ccc(Br)cc1", "note": "(stereo not drawn) [compound 1179]", "values": [{"measurement": "IC50", "setting": "NR1/NR2A [5]", "result": 123, "unit": "µM"}, {"measurement": "IC50", "setting": "NR1/NR2B [6]", "result": 22, "unit": "µM"}, {"measurement": "IC50", "setting": "NR1/NR2B [7]", "result": 22, "unit": "µM"}, {"measurement": "IC50", "setting": "NR1/NR2C [8]", "result": 4, "unit": "µM"}, {"measurement": "IC50", "setting": "NR1/NR2C [9]", "result": 4, "unit": "µM"}, {"measurement": "IC50", "setting": "NR1/NR2D [10]", "result": 2, "unit": "µM"}]}
{"smiles": "Cc1nc2ccc(Br)cc2c(-c2ccccc2)c1C1=NN(C(=O)CCC(=O)O)C(c2ccc(Br)cc2)C1", "note": "(stereo not drawn) [compound 1210]", "values": [{"measurement": "2A percent response at the maximum tested concentration", "setting": "NR1/NR2A [11]", "result": 85, "unit": "% at 100 μM"}, {"measurement": "IC50", "setting": "NR1/NR2B [6]", "result": 209, "unit": "µM"}, {"measurement": "IC50", "setting": "NR1/NR2C [8]", "result": 33, "unit": "µM"}, {"measurement": "IC50", "setting": "NR1/NR2D [10]", "result": 27, "unit": "µM"}]}
{"smiles": "O=C(O)[C@H]1CN(CCCP(=O)(O)O)CCN1", "note": "[(R)CPP]", "values": [{"measurement": "2A/2D (ratio of Ki**)", "setting": "NR2D [1]", "result": "0.02**"}, {"measurement": "potency estimated from few doses", "setting": "NR2A", "result": 0.04, "unit": "µM"}, {"measurement": "potency estimated from few doses", "setting": "NR2B [2]", "result": 0.27, "unit": "µM"}, {"measurement": "potency estimated from few doses", "setting": "NR2C; [13]", "result": 0.63, "unit": "µM"}, {"measurement": "potency estimated from few doses", "setting": "NR2D [3]; [14]", "result": 2, "unit": "µM"}, {"measurement": "2A/2B (ratio of Ki**)", "setting": "NR2B [4]", "result": "0.2**"}]}
{"smiles": "C[C@]12N[C@H](Cc3ccccc31)c1ccccc12", "note": "[(—)MK-801]", "values": [{"measurement": "IC50", "setting": "NR2C; non-competitive and uncompetitive antagonists; read-out: 2C (μM) IC50; cited from earlier work", "result": 0.04, "unit": "µM"}, {"measurement": "IC50", "setting": "NR2D [3]; non-competitive and uncompetitive antagonists; read-out: 2D (μM) IC50; cited from earlier work", "result": 0.17, "unit": "µM"}, {"measurement": "identification in test screen of NR1/NR2D expressing BHK cells", "setting": "NR1/NR2D [12]", "result": "successfully identified"}]}
{"smiles": "C=CCN1CCC2(C)c3cc(O)ccc3CC1C2C", "note": "(stereo not drawn) [N-allylnormetazoline]", "values": [{"measurement": "identification in test screen of NR1/NR2D expressing BHK cells", "setting": "NR1/NR2D [12]", "result": "successfully identified"}]}
